Assay results published in the NIST ThermoML archive (doi:10.1021/je500363r).
Numbers after ± are expanded uncertainties.

Key:
[1] = Crystal; DTA
[2] = Molar enthalpy of transition or fusion; conditions: Crystal; DSC

Compound | Normal melting temperature [1] | Molar enthalpy of transition or fusion [2]
Br.c1ccc(NC2=NCCC3(CCCCC3)[Se]2)cc1 | 144.8 ± 0.5 °C | 4.3 ± 0.263 kcal/mol
Br.Fc1ccc(NC2=NCCC3(CCCCC3)[Se]2)cc1 | 196.2 ± 0.5 °C | 6 ± 0.263 kcal/mol
Br.CC(C)c1ccc(NC2=NCCC3(CCCCC3)[Se]2)cc1 | 148.4 ± 0.5 °C | 3.08 ± 0.239 kcal/mol
